Paper PMC11189555, “Aryl amino acetamides prevent Plasmodium falciparum ring development via targeting the lipid-transfer protein PfSTART1” (Nature Communications, 2024)
Values joined by “and” are separate entries in the source; they are usually repeats but may differ in a detail not shown here. Equal values may be shown once.

Test system: 3D7, SLI- and CR- WT, N309K, N330K parasites
Assay: Parasite growth over 72 h in the presence of GlcN (LDH)
Assay type: cell-based, Plasmodium falciparum
Conditions: for Growth over 72 h, 0.25 mM / 0 mM / Growth over 72 h, 2.5 mM / 0 mM: biological replicates 1-4; for Growth over 72 h (mean of raw readings) / Growth over 72 h normalised to 0 mM GlcN (= 100): biological replicates 1-3; for Growth over 72 h (raw reading): biological replicates 1-3, DMSO data of M833 and W991 sets
Procedure: thereafter called SLI-WT, SLI-N309K and SLI-N330K). gDNA was extracted and a PCR was conducted to check for correct integration using primers START_5’UTR.F and START_Seq.R (Table S2); the same PCR on 3D7 gDNA was used as a control, as no bands should be observed in the 3D7 samples. (B) The sequencing of the PCR […]
and that SLI-N309K and SLI-N330K contain the correct mutations. (C) Growth of 3D7, SLI-WT, -N309K or -N330K over 72 h in the presence of 0, 0.25 or 2.5 mM GlcN was measured with an LDH assay. Growth was normalised to the 0 mM GlcN condition. n=4 biological replicates. Ordinary one-way ANOVA with Dunnett’s multiple comparison test (comparison to the 0 mM condition). **: p<0.005. ***: p<0.0005. ****: p<0.0001. (D) Similar to SLI parasites, CRISPR transfectant parasites were cloned:
CR-WT clone D2, CR-N309K clone C10 and CR-N330K clone B2, thereafter called CR-WT, CR-N309K and CR-N330K. A PCR was conducted to check for correct integration using primers START_5’UTR.F and START_IntR1; 3D7 gDNA was used […]
wild-type version of pfstart1, and that CR-N309K and CR-N330K contain the correct mutations. (F) Growth of 3D7, CR-WT, -N309K or -N330K over 72 h in the presence of 0, 0.25 or 2.5 mM GlcN was measured by LDH assay (same as (C); n=6 biological replicates). Source data are provided as a Source Data file. […]
and compound 4. Note that M-833 was first purchased from MolPort (MolPort -002-267-916) then made in-house at WEHI: the differences observed in EC50s across experiments are attributed to the different batches of M -833. For some experiments, 0, 0.25 or 2.5 mM of glucosamine (GlcN) was also added. Experiments were set up in technical duplicates or triplicates. Following a freeze -thaw cycle, lactate dehydrogenase (LDH) activity was assessed as an indicator of parasite growt h 5. 30 μL of parasite culture was incubated for 30 min in the dark with 75 μL Malstat mixture (0.1 M Tris pH 9.0, 20 g/L lactic acid, pH 7.5, 0.2% Triton-X100, 0.5 g/L acetylpyridine adenine dinucleotide (APAD, Sigma), 200 μg/mL nitroblue tetrazolium (NBT; Sigma), 1 μg/mL phenozine ethosulfate (PES; Sigma)). Absorbance was then measured at 650 nm, transformed using the formula below, plotted against the logarithm of the concentrations, and a non-linear regression (log(inhibitor) vs. response, variable slope) was calculated using GraphPad Prism to assess the half-inhibitory […]
Growth inhibition % = (1 − average(sample)− average(uRBC)) ∗ 100 […]
The DMSO samples were also used to assess growth of parasite in the presence of 0.25 and 2.5 mM GlcN (normalised by DMSO in 0 mM GlcN). […]

[1] = CR-N309K parasites, 0.25 mM GlcN
[2] = CR-N309K parasites, 2.5 mM GlcN
[3] = CR-N330K parasites, 0.25 mM GlcN
[4] = CR-N330K parasites, 2.5 mM GlcN

In the case of N[C@H]1C(O)O[C@H](CO)[C@@H](O)[C@@H]1O (some centres unmarked) [GlcN, glucosamine], the “Growth over 72 h, 0.25 mM / 0 mM” value (3D7, 0.25 mM GlcN) is reported as 98.6386 and 100.075 and 99.6504 and 92.7264, the “Growth over 72 h, 2.5 mM / 0 mM” value (3D7, 2.5 mM GlcN) is reported as 77.3282 and 91.4546 and 81.2488 and 87.4334 and the reduced growth (3D7, 2.5 mM GlcN, 72 h) is reported as ~ 5%. For the same molecule, the “Growth over 72 h (mean of raw readings)” value (3D7 parasites, 0.25 mM GlcN) was 0.1623 and 0.1668 and 0.4453 and 0.6687 and 0.4936 and 0.5657, the “Growth over 72 h normalised to 0 mM GlcN (= 100)” value (from here on “Growth over 72 h normalised”) (3D7 parasites, 0.25 mM GlcN) was 99.2357 and 96.4441 and 83.2336 and 124.534 and 89.0493 and 116.399 and the “Growth over 72 h (raw reading)” value (3D7 parasites, 0.25 mM GlcN) was 0.1683 and 0.1751 and 0.4506 and 0.6702 and 0.5044 and 0.558 and 0.1563 and 0.1585 and 0.44 and 0.6673 and 0.4828 and 0.5734. The “Growth over 72 h (mean of raw readings)” value (3D7 parasites, 2.5 mM GlcN) was 0.1303 and 0.133 and 0.3936 and 0.3428 and 0.669 and 0.5661, the “Growth over 72 h normalised” value (3D7 parasites, 2.5 mM GlcN) was 79.6393 and 76.9008 and 73.5607 and 61.8528 and 124.572 and 116.481 and the “Growth over 72 h (raw reading)” value (3D7 parasites, 2.5 mM GlcN) was 0.137 and 0.138 and 0.4268 and 0.3683 and 0.6835 and 0.563 and 0.1235 and 0.128 and 0.3603 and 0.3174 and 0.6544 and 0.5692. The “Growth over 72 h (mean of raw readings)” value [1] was 0.127 and 0.1406 and 0.5399 and 0.6825 and 0.5806 and 0.5768, the “Growth over 72 h normalised” value [1] was 83.6627 and 84.6177 and 96.1271 and 111.164 and 88.2706 and 96.8194 and the “Growth over 72 h (raw reading)” value [1] was 0.13 and 0.1405 and 0.5297 and 0.694 and 0.5709 and 0.5788 and 0.124 and 0.1406 and 0.55 and 0.6711 and 0.5903 and 0.5749. For the same molecule, the “Growth over 72 h (mean of raw readings)” value [2] was 0.0842 and 0.08195 and 0.3029 and 0.2482 and 0.3611 and 0.3044, the “Growth over 72 h normalised” value [2] was 55.4677 and 49.3377 and 53.9263 and 37.7271 and 58.8111 and 51.0826 and the “Growth over 72 h (raw reading)” value [2] was 0.0834 (2×) and 0.3049 and 0.2428 and 0.3713 and 0.3087 and 0.085 and 0.0805 and 0.3008 and 0.2535 and 0.3509 and 0.3. The “growth less than in the absence of GlcN” value (CR-N309K, 2.5 mM GlcN, 72 h) was 50%, the “Growth over 72 h (mean of raw readings)” value [3] was 0.2349 and 0.2489 and 0.3654 and 0.7776 and 0.3572 and 0.7298 and the “Growth over 72 h normalised” value [3] was 94.757 and 83.1329 and 83.9922 and 102.755 and 71.8539 and 97.5734. The “Growth over 72 h (raw reading)” value [3] was 0.2498 and 0.2614 and 0.3895 and 0.7636 and 0.4102 and 0.7252 and 0.2201 and 0.2364 and 0.3414 and 0.7917 and 0.3041 and 0.7344, the “Growth over 72 h (mean of raw readings)” value [4] was 0.1315 and 0.1328 and 0.1893 and 0.172 and 0.7048 and 0.6593 and the “Growth over 72 h normalised” value [4] was 53.0349 and 44.3554 and 43.5072 and 34.6042 and 93.1356 and 88.1543. For the same molecule, the “Growth over 72 h (raw reading)” value [4] was 0.1385 and 0.1375 and 0.1953 and 0.1767 and 0.7177 and 0.6721 and 0.1245 and 0.1281 and 0.1833 and 0.1673 and 0.692 and 0.6466, the “Growth over 72 h (mean of raw readings)” value (CR-WT parasites, 0.25 mM GlcN) was 0.2131 and 0.2403 and 0.4884 and 0.5805 and 0.5445 and 0.4768 and the “Growth over 72 h normalised” value (CR-WT parasites, 0.25 mM GlcN) was 94.7322 and 91.6651 and 102.262 and 415.2 and 101.567 and 345.382. For the same molecule, the “Growth over 72 h (raw reading)” value (CR-WT parasites, 0.25 mM GlcN) was 0.2167 and 0.241 and 0.4948 and 0.5777 and 0.5446 and 0.4838 and 0.2095 and 0.2396 and 0.4819 and 0.5832 and 0.5444 and 0.4698, the “Growth over 72 h (mean of raw readings)” value (CR-WT parasites, 2.5 mM GlcN) was 0.1497 and 0.1625 and 0.3987 and 0.36 and 0.5094 and 0.4461 and the “Growth over 72 h normalised” value (CR-WT parasites, 2.5 mM GlcN) was 66.5703 and 61.9874 and 83.4991 and 67.1517 and 364.413 and 323.18. For the same molecule, the “Growth over 72 h (raw reading)” value (CR-WT parasites, 2.5 mM GlcN) was 0.1508 and 0.1623 and 0.3842 and 0.3527 and 0.5062 and 0.4479 and 0.1487 and 0.1627 and 0.4133 and 0.3673 and 0.5127 and 0.4444, the “Growth over 72 h, 0.25 mM / 0 mM” value (SLI-N309K, 0.25 mM GlcN) was 84.2717 and 93.806 and 99.7943 and 79.4202 and the “Growth over 72 h, 2.5 mM / 0 mM” value (SLI-N309K, 2.5 mM GlcN) was 52.5042 and 74.3497 and 80.6954 and 57.9574. For the same molecule, the “Growth over 72 h, 0.25 mM / 0 mM” value (SLI-N330K, 0.25 mM GlcN) was 88.793 and 84.0431 and 73.2682 and 86.1624, the “Growth over 72 h, 2.5 mM / 0 mM” value (SLI-N330K, 2.5 mM GlcN) was 52.5716 and 59.0221 and 51.4095 and 62.9405 and the “Growth over 72 h, 0.25 mM / 0 mM” value (SLI-WT, 0.25 mM GlcN) was 108.267 and 89.5536 and 80.5452 and 87.3943. For the same molecule, the “Growth over 72 h, 2.5 mM / 0 mM” value (SLI-WT, 2.5 mM GlcN) was 78.3352 and 62.7379 and 46.4436 and 59.8798 and the “growth less than in the absence of GlcN” value (most SLI- and CR- lines, 2.5 mM GlcN, 72 h) was “approximately 40%”.
